Laboratory results as given in US4607039A, “Quinoline derivatives which are 5-hydroxytryptamine antagonists” (Imperial Chemical Industries PLC, priority 1982, dated 1986).

How the values were obtained:
[1] = stated in U.S. Pat. No. 1,860,286; cited from earlier work
[2] = Tolerance in the marmoset, oral; details: in vivo, read-out: oral doses tolerated (up to)
Description: (§1) No toxic effects or other undesirable effects have been observed with the compounds at doses at which they are active in the above-mentioned tests. Furthermore, as an indication of the lack of toxicity of a specific compound of the invention, namely 2-(2-dimethylamino-2-methylpropylthio)-4-methyl-3-phenylquinoline, that compound is tolerated in both the conscious dog and the marmoset at oral doses of up to 60 mg./kg.

[3] = Tolerance in the conscious dog, oral; details: in vivo, read-out: oral doses tolerated (up to)
Description: as §1

For `CCN(CC)CCOc1nc2ccccc2cc1-c1ccccc1` [2-(2-diethylaminoethoxy)-3-phenylquinoline], the antipyretic activity [1] is listed as “exhibits antipyretic activity”.
In the case of `Cc1c(-c2ccccc2)c(SCC(C)(C)N(C)C)nc2ccccc12.O=C(O)/C=C/C(=O)O.O=C(O)/C=C/C(=O)O` [Example 3, 2-(2-dimethylamino-2-methylpropylthio)-4-methyl-3-phenylquinoline difumarate], the MTD [2] is reported as no less than 60 mg/kg and the MTD [3] is reported as no less than 60 mg/kg.
